Test results from patent US10323022B2, “Pyrrolidinyl urea, pyrrolidinyl thiourea and pyrrolidinyl guanidine compounds as TrkA kinase inhibitors” (Array BioPharma Inc., priority 2011, dated 2019).

target: TrkA (Homo sapiens (Human), UniProt P04629); assay: TrkA Omnia Assay; format: biochemical; conditions: averaged IC50; 20 nM enzyme, 500 μM ATP, 10 μM peptide substrate
Procedure, shortened: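 Recombinant TrkA (20 nM) preincubated 10 min at ambient temperature with compound, then Omnia Tyr Peptide #4 (10 μM) and ATP (500 μM) added in 25 mM MOPS pH 7.5, 5 mM MgCl2, 0.005% Triton X-100. Fluorescence (ex 360/em 485 nm) followed continuously for 70 min; IC50 from initial rates by 4- or 5-parameter logistic fit.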

Sequence of TrkA (P04629 33-796): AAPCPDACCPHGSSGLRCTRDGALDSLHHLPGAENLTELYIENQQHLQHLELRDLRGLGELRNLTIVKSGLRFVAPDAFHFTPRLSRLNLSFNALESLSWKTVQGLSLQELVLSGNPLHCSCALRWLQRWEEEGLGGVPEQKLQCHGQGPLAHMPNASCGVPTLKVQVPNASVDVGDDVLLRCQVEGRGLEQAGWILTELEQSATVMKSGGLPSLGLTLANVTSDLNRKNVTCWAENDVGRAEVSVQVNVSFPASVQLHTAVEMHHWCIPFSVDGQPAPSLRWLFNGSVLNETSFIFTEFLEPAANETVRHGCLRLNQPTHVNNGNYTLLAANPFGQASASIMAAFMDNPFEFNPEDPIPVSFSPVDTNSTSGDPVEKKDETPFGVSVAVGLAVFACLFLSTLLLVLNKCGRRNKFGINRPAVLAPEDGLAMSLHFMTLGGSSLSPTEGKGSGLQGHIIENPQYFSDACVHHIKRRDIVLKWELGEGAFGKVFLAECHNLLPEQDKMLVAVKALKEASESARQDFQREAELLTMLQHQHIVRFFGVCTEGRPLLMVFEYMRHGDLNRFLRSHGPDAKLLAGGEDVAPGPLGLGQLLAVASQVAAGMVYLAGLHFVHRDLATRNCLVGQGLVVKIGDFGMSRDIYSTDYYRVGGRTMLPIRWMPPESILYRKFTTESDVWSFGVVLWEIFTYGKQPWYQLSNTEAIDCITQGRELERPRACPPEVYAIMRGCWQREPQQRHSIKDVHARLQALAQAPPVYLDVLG

| SMILES | IC50 [nM] |
| --- | --- |
| COCCN1C[C@@H](NC(=O)Nc2cc(-c3ccccc3)nn2C)[C@H](c2cccc(C(F)(F)F)c2)C1 [Example 109, 1-((3S,4R)-1-(2-methoxy-ethyl)-4-(3-(trifluoro-methyl)phenyl)pyrrolidin-3-yl)-3-(1-methyl-3-phenyl-1H-pyrazol-5-yl) urea] | 100 to 1000 |
| COCCN1C[C@@H](NC(=O)Nc2cc(-c3ccccc3)nn2CCO)[C@H](c2ccc(F)c(F)c2)C1 [Example 122, 1-((3S,4R)-4-(3,4-difluorophenyl)-1-(2-methoxyethyl)pyrrolidin-3-yl)-3-(1-(2-hydroxy-ethyl)-3-phenyl-1H-pyrazol-5-yl)urea] | 100 to 1000 |
| COCCN1C[C@@H](NC(=O)Nc2c3c(nn2-c2ccccc2)CCC3)[C@H](c2ccc(F)cc2)C1 [Example 128, 1-((3S,4R)-4-(4-fluorophenyl)-1-(2-methoxyethyl)pyrrolidin-3-yl)-3-(2-phenyl-2,4,5,6-tetrahydrocyclo-penta[c]pyrazol-3-yl)urea] | < 100 |
| COCCN1C[C@@H](NC(=O)Nc2c(C)c(C)nn2-c2ccccc2)[C@H](c2ccc(F)cc2)C1 [Example 129, 1-(3,4-dimethyl-1-phenyl-1H-pyrazol-5-yl)-3-((3S,4R)-4-(4-fluorophenyl)-1-(2-methoxyethyl)pyrrolidin-3-yl)urea] | < 100 |
| COCCOc1ccc(-c2cc(NC(=O)N[C@@H]3CN(CCOC)C[C@H]3c3ccc(F)c(F)c3)n(C)n2)cc1 [Example 130, 1-((3S,4R)-4-(3,4-difluorophenyl)-1-(2-methoxyethyl)pyrrolidin-3-yl)-3-(3-(4-(2-methoxyethoxy)phenyl)-1-methyl-1H-pyrazol-5-yl)urea] | < 100 |
| COCCN1C[C@@H](NC(=O)Nc2c(OC)c(C)nn2-c2ccccc2)[C@H](c2ccc(F)c(F)c2)C1 [Example 131, 1-((3S,4R)-4-(3,4-difluorophenyl)-1-(2-methoxyethyl)pyrrolidin-3-yl)-3-(4-methoxy-3-methyl-1-phenyl-1H-pyrazol-5-yl)urea] | < 100 |
| COCCN1C[C@@H](NC(=O)Nc2c(C)c(CO)nn2-c2ccccc2)[C@H](c2ccc(F)c(F)c2)C1 [Example 132, 1-((3S,4R)-4-(3,4-difluorophenyl)-1-(2-methoxyethyl)pyrrolidin-3-yl)-3-(3-(hydroxy-methyl)-4-methyl-1-phenyl-1H-pyrazol-5-yl)urea] | < 100 |
| COCCN1C[C@@H](NC(=O)Nc2c(C)c(CCO)nn2-c2ccccc2)[C@H](c2ccc(F)c(F)c2)C1 [Example 133, 1-((3S,4R)-4-(3,4-difluorophenyl)-1-(2-methoxyethyl)pyrrolidin-3-yl)-3-(3-(2-hydroxy-ethyl)-4-methyl-1-phenyl-1H-pyrazol-5-yl)urea] | < 100 |
| COCCc1nn(-c2ccccc2)c(NC(=O)N[C@@H]2CN(CCOC)C[C@H]2c2ccc(F)c(F)c2)c1C [Example 134, 1-((3S,4R)-4-(3,4-difluorophenyl)-1-(2-methoxyethyl)pyrrolidin-3-yl)-3-(3-(2-methoxy-ethyl)-4-methyl-1-phenyl-1H-pyrazol-5-yl)urea] | < 100 |
| CCOc1nn(-c2ccccc2)c(NC(=O)N[C@@H]2CN(CCOC)C[C@H]2c2ccc(F)c(F)c2)c1C [Example 135, 1-((3S,4R)-4-(3,4-difluorophenyl)-1-(2-methoxyethyl)pyrrolidin-3-yl)-3-(3-ethoxy-4-methyl-1-phenyl-1H-pyrazol-5-yl)urea] | < 100 |
| COCCN1C[C@@H](NC(=O)Nc2cc(OCc3ccccc3)nn2C)[C@H](c2ccc(F)c(F)c2)C1 [Example 136, 1-(3-(benzyloxy)-1-methyl-1H-pyrazol-5-yl)-3-((3S,4R)-4-(3,4-difluorophenyl)-1-(2-methoxyethyl)pyrrolidin-3-yl)urea] | 100 to 1000 |
| COCCOc1nn(-c2ccccc2)c(NC(=O)N[C@@H]2CN(CCOC)C[C@H]2c2ccc(F)c(F)c2)c1C [Example 137, 1-((3S,4R)-4-(3,4-difluorophenyl)-1-(2-methoxyethyl)pyrrolidin-3-yl)-3-(3-(2-methoxy-ethoxy)-4-methyl-1-phenyl-1H-pyrazol-5-yl)urea] | < 100 |

Other lines, results leading:

| IC50 [nM] | SMILES |
| --- | --- |
| < 100 | COCCN1C[C@@H](NC(=O)Nc2cc(-c3ccccc3)nn2C)[C@H](c2cccc(F)c2)C1 [Example 110, 1-((3S,4R)-4-(3-fluoro-phenyl)-1-(2-methoxy-ethyl)pyrrolidin-3-yl)-3-(1-methyl-3-phenyl-1H-pyrazol-5-yl)urea] |
| < 100 | COCCN1C[C@@H](NC(=O)Nc2cc(-c3ccccc3)nn2C)[C@H](c2ccc(F)cc2F)C1 [Example 111, 1-((3S,4R)-4-(2,4-difluorophenyl)-1-(2-methoxyethyl)pyrrolidin-3-yl)-3-(1-methyl-3-phenyl-1H-pyrazol-5-yl)urea] |
| < 100 | COCCN1C[C@@H](NC(=O)Nc2cc(-c3ccc(F)cc3)nn2C)[C@H](c2cccc(F)c2)C1 [Example 112, 1-((3S,4R)-4-(3-fluoro-phenyl)-1-(2-methoxy-ethyl)pyrrolidin-3-yl)-3-(3-(4-fluorophenyl)-1-methyl-1H-pyrazol-5-yl)urea] |
| < 100 | COCCN1C[C@@H](NC(=O)Nc2cc(-c3ccc(F)cc3)nn2C)[C@H](c2ccc(F)c(F)c2)C1 [Example 113, 1-((3S,4R)-4-(3,4-difluorophenyl)-1-(2-methoxyethyl)pyrrolidin-3-yl)-3-(3-(4-fluoro-phenyl)-1-methyl-1H-pyrazol-5-yl)urea] |
| < 100 | COCCN1C[C@@H](NC(=O)Nc2cc(-c3cccc(F)c3)nn2C)[C@H](c2ccc(F)c(F)c2)C1 [Example 114, 1-((3S,4R)-4-(3,4-difluorophenyl)-1-(2-methoxyethyl)pyrrolidin-3-yl)-3-(3-(3-fluoro-phenyl)-1-methyl-1H-pyrazol-5-yl)urea] |
| < 100 | COCCN1C[C@@H](NC(=O)Nc2cc(-c3ccccc3F)nn2C)[C@H](c2ccc(F)c(F)c2)C1 [Example 115, 1-((3S,4R)-4-(3,4-difluorophenyl)-1-(2-methoxyethyl)pyrrolidin-3-yl)-3-(3-(2-fluoro-phenyl)-1-methyl-1H-pyrazol-5-yl)urea] |
| < 100 | COCCN1C[C@@H](NC(=O)Nc2c3c(nn2-c2ccccc2)CCC3)[C@H](c2cccc(F)c2)C1 [Example 116, 1-((3S,4R)-4-(3-fluoro-phenyl)-1-(2-methoxy-ethyl)pyrrolidin-3-yl)-3-(2-phenyl-2,4,5,6-tetrahydrocyclopenta [c]pyrazol-3-yl)urea] |
| < 100 | COCCN1C[C@@H](NC(=O)Nc2c(C)c(C(C)(C)CO)nn2-c2ccccc2)[C@H](c2ccccc2)C1 [Example 117, 1-(3-(1-hydroxy-2-methylpropan-2-yl)-4-methyl-1-phenyl-1H-pyrazol-5-yl)-3-((3S,4R)-1-(2-methoxyethyl)-4-phenylpyrrolidin-3-yl) urea] |
| < 100 | COCCN1C[C@@H](NC(=O)Nc2c(C)c(C(C)(C)CO)nn2-c2ccccc2)[C@H](c2ccc(F)c(F)c2)C1 [Example 118, 1-((3S,4R)-4-(3,4-difluorophenyl)-1-(2-methoxyethyl)pyrrolidin-3-yl)-3-(3-(1-hydroxy-2-methylpropan-2-yl)-4-methyl-1-phenyl-1H-pyrazol-5-yl)urea] |
| < 100 | COCCN1C[C@@H](NC(=O)Nc2cc(-c3ccc(Cl)cc3)nn2C)[C@H](c2ccc(F)c(F)c2)C1 [Example 119, 1-(3-(4-chlorophenyl)-1-methyl-1H-pyrazol-5-yl)-3-((3S,4R)-4-(3,4-difluorophenyl)-1-(2-methoxyethyl)pyrrolidin-3-yl)urea] |
| < 100 | COCCN1C[C@@H](NC(=O)Nc2cc(-c3ccc(F)cc3)nn2C)[C@H](c2cc(F)ccc2F)C1 [Example 120, 1-((3S,4R)-4-(2,5-difluorophenyl)-1-(2-methoxyethyl)pyrrolidin-3-yl)-3-(3-(4-fluoro-phenyl)-1-methyl-1H-pyrazol-5-yl)urea] |
| < 100 | COCCN1C[C@@H](NC(=O)Nc2cc(-c3ccc(C(=O)OC)cc3)nn2C)[C@H](c2ccc(F)c(F)c2)C1 [Example 121, methyl 4-(5-(3-((3S,4R)-4-(3,4-difluorophenyl)-1-(2-methoxyethyl)pyrrolidin-3-yl)ureido)-1-methyl-1H-pyrazol-3-yl)benzoate] |
| < 100 | COCCN1C[C@@H](NC(=O)Nc2c(C)c(COC)nn2-c2ccccc2)[C@H](c2ccc(F)c(F)c2)C1 [Example 123, 1-((3S,4R)-4-(3,4-difluorophenyl)-1-(2-methoxyethyl)pyrrolidin-3-yl)-3-(3-(methoxy-methyl)-4-methyl-1-phenyl-1H-pyrazol-5-yl)urea] |
| < 100 | COCCN1C[C@@H](NC(=O)Nc2c(C)c(COC)nn2-c2ccccc2)[C@H](c2cc(F)cc(F)c2)C1 [Example 124, 1-((3S,4R)-4-(3,5-difluorophenyl)-1-(2-methoxyethyl)pyrrolidin-3-yl)-3-(3-(methoxy-methyl)-4-methyl-1-phenyl-1H-pyrazol-5-yl)urea] |
| < 100 | COCCN1C[C@@H](NC(=O)Nc2cc(-c3ccc(SC)cc3)nn2C)[C@H](c2ccc(F)c(F)c2)C1 [Example 125, 1-((3S,4R)-4-(3,4-difluorophenyl)-1-(2-methoxyethyl)pyrrolidin-3-yl)-3-(1-methyl-3-(4-(methylthio)phenyl)-1H-pyrazol-5-yl)urea] |
| < 100 | COCCN1C[C@@H](NC(=O)Nc2cc(-c3ccccc3)nn2-c2ccccc2)[C@H](c2ccc(F)c(F)c2)C1 [Example 126, 1-((3S,4R)-4-(3,4-difluorophenyl)-1-(2-methoxyethyl)pyrrolidin-3-yl)-3-(1,3-diphenyl-1H-pyrazol-5-yl)urea] |
| < 100 | COCCCc1nn(-c2ccccc2)c(NC(=O)N[C@@H]2CN(CCOC)C[C@H]2c2ccc(F)c(F)c2)c1C [Example 127, 1-((3S,4R)-4-(3,4-difluorophenyl)-1-(2-methoxyethyl)pyrrolidin-3-yl)-3-(3-(3-methoxypropyl)-4-methyl-1-phenyl-1H-pyrazol-5-yl)urea] |
